Measurements as given in a melting point compilation (Tetko et al.; mined from patent text by program, amines drawn as free bases though some values may be those of a salt).

Structure (SMILES) | melting point [°C]
O=C1C=C(O)C(=O)c2cc(F)ccc21 | 206 to 210
Cc1nc(Br)c(Br)n1Cc1cc2c(cc1Cl)OCO2 | 185
CC(C)N(C(=O)CCCCCC(=O)O)c1ccccc1 | 62 to 63
O=[N+]([O-])c1cc(Cl)c(OCC(F)(F)F)cc1F | 54 to 55
CN1CC=C(c2c[nH]c(-c3ccc(F)cc3)c2-c2ccncc2)CC1Cc1ccccc1 (configuration not stated) | 198 to 199
CNC(=O)N(C)c1nnc(C(C)(CCl)CCl)s1 | 150 to 152
CCOC(=O)C1=C(C)NC(COC(C)=O)=C(C(=O)OCC)C1c1ccccc1[N+](=O)[O-] (configuration not stated) | 89 to 90
O=C(Nc1ccc(S(=O)(=O)c2ncccn2)cc1)C(O)(C(F)F)C(F)F | 209 to 210
Cc1nnc(CNC(=O)CN(C)C)n1-c1ccc(Cl)cc1C(=O)c1ccccc1 | 176 to 178
CC(C)OC(=O)C=C1CN=C(c2ccccc2F)c2cc(Cl)ccc2N1 | 144 to 145
CCCCCCCCCCCCCCCCOc1ccc(-c2nc(CC(=O)O)c(Oc3ccc(Cl)cc3)o2)cc1 | 76 to 77
COc1cc2ncc(C#N)c(Nc3cccc(C(C)=O)c3)c2cc1OC | 204 to 206
O=[N+]([O-])c1ccc(Nc2c(F)c(F)nc(F)c2F)c(C(F)(F)F)c1 | 104 to 105
O=C1Nc2ccccc2N2CCc3cc(Cl)cc1c32 | 232 to 233
O=C(O)CCCc1cc2nc(Cl)ccc2n1S(=O)(=O)c1cccc(Cl)c1 | 174
COP1(=O)C=Cc2ccccc21 (configuration not stated) | 89 to 90
CNc1nc(Nc2ccc(Cl)c(Cl)c2)ncc1NP(C)(C)=O | 258
CC(=O)Oc1c(C(C)C)c(-c2ccc(F)cc2)c(O)c(C(C)C)c1C(C)C | 174 to 177
CCCCn1cc(C(=O)O)c2ccccc21 | 124 to 126
O=C(Nc1ccccn1)Nc1nc(-c2ccccc2)cs1 | 247 to 249
O=C(O)C1=Cc2cc(C(O)C(F)(F)F)ccc2OC1C(F)(F)F (configuration not stated) | 114 to 120
O=C1NCC(CCN2CCN(c3ccccc3F)CC2)O1 (configuration not stated) | 121 to 124
CC(C)(CN1CCC(CNC(=O)N2C(=O)C3(CCCC3)c3ccccc32)CC1)C(=O)O | 189
COc1ccc(CCC(O)=S)cc1[N+](=O)[O-] | 130 to 132

Structure (SMILES) | melting point [°C]
CCCCCCCCCCCCCCCCO[C@@H]1CCCO[C@H]1CO (relative stereo) | 41 to 42
CCc1ccc(Nc2c(C#N)cnc3cc(OC)c(OC)cc23)cc1 | 248 to 250
CCn1c(C(C)NS(=O)(=O)c2ccc(Cl)c(Cl)c2)cnc1Oc1ccc(Cl)cc1 (configuration not stated) | 153 to 157
CNC(=O)C(C)n1cc(C)c(-c2ccccc2)n1 (configuration not stated) | 111 to 112
CC1(C)OC=C(CS(=O)(=O)c2ccc(F)cc2)C1=O | 159 to 160
O=c1oc(-c2ccccc2)cc(O)c1C(Sc1ccccc1)c1ccc2ccccc2c1 (configuration not stated) | 98 to 101
O=C1c2ccccc2CCC1n1cncn1 (configuration not stated) | 96 to 98
Cc1cc(C)c2c(c1)[C@H]1CN(C)CC[C@@H]1CC2=O (relative stereo) | > 250
O=C(Nc1ccc(O)c(O)c1)C12CC3CC(CC(C3)C1)C2 | 196 to 199
COc1ccc(/C=C/C2=CCN(Cc3c[nH]c4ncccc34)CC2)cc1 | 201 to 204
NC(=O)c1cc(Oc2ccc3c(C(=O)Nc4cccc(C(F)(F)F)c4)cccc3c2)ccn1 | 117 to 120
CC[C@@H]1NC(=O)C[C@@]1(O)C1CC1 | 87 to 102
CCCCN(Cc1ccc(-c2ccccc2-c2nnn[nH]2)cc1)c1ncccc1CNC(C)=O | 108 to 110
CCCCCCCCCCCCCCCCCCOc1ccc(OCCCc2ccccc2)c(C(=O)N(CC(=O)O)CC(=O)O)c1 | 101 to 102
CCNC(=O)c1cccc(-c2cccc3cc(Cc4cccc(C(F)(F)F)c4)sc23)c1 | 122 to 123
Cn1cc(C(=O)NCc2ccc(Cl)cc2)c(=O)c2cc(CN3CCCSCC3)ccc21 | 166 to 167
CCN(CC)S(=O)(=O)c1c(Cl)c(Cl)c(Cl)c2nc(C(F)(F)F)[nH]c12 | 155 to 157
CCCCCCc1cc2c(cc1C(=O)O)C(C)(C)CCC2(C)C | 98 to 99
O=C(NO)[C@H](CNS(=O)(=O)c1ccc(OCc2cc(Cl)cc(Cl)c2)cc1)N1CCCCC1 | 130
CCOc1ccc(C(=O)NCCN2CCC(Oc3ccc(Cl)c(Cl)c3)CC2)cc1 | 118 to 120
O[C@@H]1CCCN(C[C@@H]2CCN(CCc3c[nH]c4ccc(-n5cncn5)cc34)C2)[C@@H]1c1ccccc1 | 192 to 193
CCc1cn(C2CC(O)C(CCCO)O2)c(=O)[nH]c1=O (configuration not stated) | 113 to 115
Cn1c(=O)n(-c2cc(Cl)cc(Cl)c2)c(=O)n1C | 209 to 211
Cc1c(C(=O)Nc2ccc(N3CCC(N4CCCCC4)CC3)c(C#N)c2)cnn1-c1ccc(Cl)cc1 | 252

Now from value to compound:

melting point [°C] | Structure (SMILES)
65 to 75 | COC(C)(CCCCC(C)(C)O)c1cccc(C=Cc2cc(O)cc(O)c2)c1 (configuration not stated)
68 to 70 | CC(C)(C)C(=O)C=Cc1cccnc1
110 | COC(=O)CCc1c(C=O)ccc2c1CCC(NS(=O)(=O)c1ccc(Cl)cc1)C2 (configuration not stated)
323 | CNc1nc(Nc2ccc(S(C)(=O)=O)cc2)ncc1[N+](=O)[O-]
104 to 107 | Cc1nn(-c2cccnc2)cc1NC1CC1
192 to 195 | COc1ccc(CNc2nc(N3CCC[C@H]3CO)ncc2C(=O)Nc2cncnc2)cc1Cl
141 to 144 | O=Cc1nccn1Cc1ccccc1[N+](=O)[O-]
68 to 69 | Cc1cc(C)cc(OCC(=O)c2ccc(C(C)C)cc2)c1
170 to 175 | N#Cc1cc(Br)c(I)c(Br)c1
143 to 144 | Cc1cc(C(F)(F)C(F)(F)F)ccc1NC(=O)c1cccc(I)c1C(=O)NC(C)(C)CS(C)(=O)=O
40 to 41 | COc1ccc(-c2ccc(C)c3occc23)cc1
83 to 84 | COc1c(O)ccc2cc[nH]c12
145 | FC(F)(F)c1cccc(N2CCN(c3ccc(I)nn3)CC2)c1
90 to 93 | CC(C)Nc1cccnc1N1CCN(C(=O)c2ccc(C(=O)NC(CO)CO)cn2)CC1
179 to 180 | c1ccc(Oc2cccc3c2CCN(Cc2c[nH]c4ncccc24)C3)cc1
95 | O=C(Nc1ccc2ccc(Oc3ccccc3)nc2n1)C1=CCC=CC1
152 to 154 | Cc1ccc(-c2ccc(S(N)(=O)=O)cc2)n1-c1ccc(Cl)cc1
78 | CCCOc1cc(C2(C)CNC(=O)O2)ccc1OC (configuration not stated)
165 to 166 | O=C(c1ccc2nonc2c1)N1C2CCC1CC(F)(F)C2
77 to 78 | CCCCCCCCCCCCCCCCSCC(CO)n1nnnc1C (configuration not stated)
270 to 273 | O=C(C=Cc1ccc(Cl)c(C(F)(F)F)c1)NN1CC(=O)NC1=O
94 | COc1ccc(C=O)c(OCCO)c1
82 to 83 | CCOC(=O)c1ccc(/C=C(\CC)c2ccc3c(c2)C(C)(C)CCC3(C)C)cc1
166 to 167 | COC(=O)Cn1c(=O)[nH]c(=O)n(-c2cc(Oc3ccc(C(F)(F)F)c(Cl)c3)ccc2[N+](=O)[O-])c1=O
41 to 42 | Cc1cc(CCCCCOc2c(C)cc(-c3noc(C(F)(F)F)n3)cc2C)on1
222 to 223 | Nc1ccccc1NC(=O)c1cc2cc(OCCO)ccc2[nH]1
161 to 162 | C#C[C@H]1CC[C@H](C(=O)O)CC1

melting point [°C] | Structure (SMILES)
224 to 226 | O=C(O)c1cc(O)c(O)c([N+](=O)[O-])c1
264 | COc1ccc2nc3cc(OC)c(=O)c(Cl)c-3sc2c1
158 to 160 | CCOC(=O)CSCc1nc(NCc2ccc(OC)c(Cl)c2)c2c3c(sc2n1)CCCC3
190 to 192 | Cc1nc(N)c2nc(CCO)n(NC3CCOCC3)c2c1C
208 to 209 | O=C(Nc1ccc(OC(F)(F)F)cc1)NC1CCN(C(=O)c2ccc(Cl)nc2)CC1
245 to 247 | O=C1c2cc(O)ccc2OCC1n1ccnc1 (configuration not stated)
79 to 81 | Cc1c(Cl)cccc1N=Cc1ccc(Cl)cc1
180 to 183 | Cc1noc(NS(=O)(=O)c2sccc2Cc2ccccc2)c1Br
64 to 65 | FC(F)(F)c1cc(Br)c(C(F)(F)F)cc1Br
166 to 168 | CC(C)(O)c1cccc(-c2ccc3nc(-c4ccc(Cl)cc4)cn3c2)c1
137 to 138 | CC(C)N(C)CCOc1ccc(-n2ccc(OCc3ccc(Cl)cn3)cc2=O)cc1
51.3 to 52.9 | O=[N+]([O-])c1ccc(C(Cl)(Cl)Br)cc1
147 to 150 | CN(C)C(=O)N1CCC(=NO)c2cc(F)ccc21
102 to 104 | CC=CCSc1cc(C(=O)O)cc(N)c1-c1ccccc1
125 to 126 | Cc1ccc(S(=O)(=O)n2ccc3c(CO)cccc32)cc1
206 to 210 | O=C(c1ccc(NS(=O)(=O)c2ccccc2Cl)cc1)N1Cc2cccn2Cc2ccccc21
246 | CCOC(=O)c1cc(Br)cc2c(=O)cc(-c3cccc(OCc4ncc5ccccc5n4)c3)oc12
156 to 160 | CC(NC(=O)Nc1ccc(CN2C(=O)C3CCCC3N(C(=O)CN3C(=O)c4ccccc4C3=O)c3ccccc32)cc1)c1ccccc1 (configuration not stated)
218 to 221 | CC(C)NCC1CCN(c2c(F)cc3c(=O)c(C(=O)O)cn(C4CC4)c3c2F)C1 (configuration not stated)
278 | CCn1cnc(S(=O)(=O)O)c1
206 to 208 | COc1ccc(Cn2c3ccccc3c3c(N)c(C(=O)O)c(C)nc32)cc1
271 to 272 | CC(C)(C)C(NC(=O)c1ccc(Cl)cc1)Nc1c(Nc2cccc(F)c2)c(=O)c1=O (configuration not stated)
60 to 61 | CN(C)NC(=O)NCCCCC1CCSS1 (configuration not stated)
44 to 46 | CCN(CC)CCCOc1ccc(C(O)(CC)c2cccc(C(F)(F)F)c2)cc1 (configuration not stated)
68 to 70 | COc1ccccc1Oc1ccccc1N
> 270 | Cc1csc2c(S(N)(=O)=O)c(C(N)=O)nn12
140 to 143 | Clc1ccc2oc(-c3ccccc3)cc2c1
